Test results as given in PMC6838142, “Nano-Antagonist Alleviates Inflammation and Allows for MRI of Atherosclerosis” (Nanotheranostics, 2019).
“Also recorded” adds a separate entry of the source.

What was measured:
recombinant CCR2 protein = experiment: CCR2 receptor binding of nanoparticles to immobilized recombinant CCR2; parameters: species or system human; details: recombinant CCR2 2 µg/mL coated; nanoparticles 4 h room temperature; fluorescence 550/620 nm
Method: A sandwich-type plate-based immunoassay was developed in-house to study CCR2 receptor binding. Black opaque plates (for fluorescence studies) or clear high protein binding plates (for absorbance studies) were coated with recombinant CCR2 protein at 2 µg/mL in PBS overnight at 4 °C. Plates were washed 5 times with PBS and treated as follows: for nanoparticles binding, varying concentrations of fluorescent nanoparticles or vehicle control (see above) in PBS were added to the opaque plates and incubated for 4 h at room temperature. For peptide competition/binding studies, recombinant human CCL2 was added in clear plates at varying concentrations in PBS simultaneously with a large excess of peptides (1 mM final concentration, dissolved in dimethylformamide) and incubated for 1 h at room temperature. All plates were washed 5 times with PBS and fluorescence in opaque plates was read at 550 nm excitation and 620 nm emissions. […] Clear plates were washed and incubated with 0.1 µg/mL streptavidin-HRP. Finally, clear plates were washed and incubated with SigmaFast OPD reagent in the presence of hydrogen peroxide-urea, as per the manufacturer's instructions. After 30 min incubation period at 37 °C, the plates were read at 450 nm on a multiwell plate reader as described above. Fluorescence emission values and OD at 450 nm were plotted against concentration using a 4-parametric fit.

[1] = test system: NLRP3 inflammasome (J774 cells); experiment: Inflammasome activation immunoblot in J774 cells; type: cell-based, mouse; details: additional activator ATP 1 mM
Method: BMDMs or J774 cells were plated in 48-well plates at 2 x 10^5 per well. Next day, the medium was changed to Opti-MEM (100 μL per well) without serum and the cells were allowed to equilibrate for 3 h. Next, the cells were pretreated with the indicated concentrations of nanoparticles or controls for 3 h followed by the addition of LPS to some wells to the final LPS concentration of 50 ng/mL. LPS priming continued for another 2 h, following which DMSO (vehicle), Nigericin (5 μM) or adenosine triphosphate (ATP) (1 mM) were added to some wells. Cells were incubated for an additional 30 min and cell culture supernatants were collected on ice. Cells were washed with cold PBS once and lysed/processed as described in immunoblotting section. The supernatants (90 μL) were mixed with 10 μL of 10x SDS loading buffer (10% SDS, 10% Ficoll 400, 0.5 M Tris pH 6.8, 0.5 M DTT, and 0.001% bromophenol blue) and heat-denatured as described in the immunoblotting section. Supernatants were loaded at 45 μL per lane on Bio Rad TGX Criterion 12+2 gels (4-20%) and lysates were loaded at 15 μg per lane. Immunoblotting was performed as described above.
Supplementary Figure S10. Inflammasome activation assays in J774 cells. The cells were treated as described in Methods and main text Figure 5 legend, plus additional inflammasome activator ATP that was added at 1 mM. Immunoblot was performed as described in methods. […]

RAW 264.7 cells = experiment: Gene expression analysis in LPS-stimulated RAW cells; type: cell-based, mouse; details: 1 µM, 24 h, LPS 100 ng/mL; vs VTCC or vehicle
Method: RAW 264.7 cells were seeded in 24-well plates at 1.0 x 10^5 per well with LPS (100 ng/mL) and allowed to attach overnight. After a quick wash with PBS, RNA was isolated from cells following the Trizol method. Next, RNA was reverse transcribed to cDNA, and amplified by the polymerase chain reaction (PCR) using reagents from cDNA synthesis kit, SYBR Green PCR Master Mix and target-specific TaqMan probes as indicated in Supplementary Table S1. Roche LightCycler 480 II was used to perform quantification analysis of gene expression using the ΔΔCT method as previously described,[13],[16].

CCR2 = experiment: Uptake in wild-type macrophages pre-treated with CCR2 inhibitor; type: cell-based, mouse; details: BMS CCR2 22 10 nM, 6 h pre-treatment vs DMSO
Method: Supplementary Figure S6. A) Separate channels for main manuscript Figure 1B.
Uptake of carboxyfluorescein-labeled CCTV or VTCC in cultured bone marrow derived macrophages from B)
CCR2 knockout (KO, B6.129S4-Ccr2 /J) or wild-type (WT) mice; C) wild-type mouse-derived macrophages
pre-treated (6 h) with CCR2 inhibitor BMS CCR2 22 (10 nM) or DMSO as vehicle control. C)
(1 picture or pasted object on this page, not shown here)

[2] = test system: CCR2hiLy6Chi inflammatory cells in blood of ApoE-/- mice; experiment: Flow cytometry of blood immune cells after injection; type: in vivo, mouse
Method: Twenty-four hours after nanoparticle injection (see above), mice were euthanized and whole blood was collected via cardiac puncture. The cells were separated from plasma via centrifugation at 2500 rpm for 25 min at 4 °C and white blood cells were isolated after lysis of red blood cells with ACK lysis buffer. The cells were resuspended in 1% FBS in PBS (FACS buffer) on ice and stained with fluorophore-conjugated antibodies detecting CD11b, CD11c, CCR2, and Ly6C (Supplementary Table S1) for 30 min at room temperature. Cells were washed with FACS buffer three times and one time with PBS, and then fixed in 2% paraformaldehyde in PBS, pH 7.4. Samples were run on a Becton Dickinson LSR II flow cytometer and cell surface expression analysis of indicated markers was performed using FlowJo software.

[3] = test system: F4/80-positive plaque macrophages; experiment: Immunohistochemistry / plaque macrophage co-staining; type: in vivo, mouse; details: mouse, in vivo
Method: Twenty-four hours after nanoparticle injection (see above), mice were euthanized and abdominal aortas were isolated and embedded in Optimal Cutting Temperature compound. After cryotome-sectioning, resulting in 20-30 slides per mouse, 15 slides were sent to Ohio State laser capture microdissection core lab for capture and analysis. The rest of the slides were processed as follows: after fixation in methanol:acetone 50:50 at -20 °C, slides were hydrated in PBS, blocked for 30 min in fish serum (Aqua Block) and stained for 1 h with primary antibodies against F4/80 followed washing and staining with HRP-conjugated secondary antibody for 30 min. DAB peroxidase kit was then used as per manufacturer's instructions followed by mounting. DAB and antibody staining (but not wash steps) was omitted in slides designated for nanoparticle fluorescence visualization. Nanoparticles fluorescence was visualized with Zeiss 510 LSM-meta confocal microscope and 20x objective. DAB F4/80 staining was visualized with Nikon FN1 microscope and same power objective.

CCTV
binding to immobilized CCR2 (recombinant CCR2 protein): bound to immobilized recombinant receptor protein in a dose dependent manner; also recorded: significant, dose-dependent binding
inflammasome deactivation in J774 cells [1]: reproducible in J774 cells
toxicity of SH-conjugated nanoparticles (RAW cells): very low toxicity
Il1b mRNA expression (RAW 264.7 cells): significantly downregulated
Il6 mRNA expression (RAW 264.7 cells): significantly downregulated
Nos2 mRNA expression (RAW 264.7 cells): significantly downregulated
Tnf mRNA expression (RAW 264.7 cells): unaffected
uptake in macrophages pre-treated with BMS CCR2 22 (CCR2): drastically reduced
accumulation in CCR2-positive blood macrophage subpopulations ([2]; 100 mg/kg, 24 h, three ApoE-/- mice/group): selectively accumulated in macrophage subpopulations positive for CCR2
nanoparticle-positive CCR2hiLy6Chi cells ([2]; 100 mg/kg, 24 h, three ApoE-/- mice/group, vs VTCC): an increased number of these cells were CCTV positive compared to VTCC
number of macrophages that engulfed nanoparticles ([2]; Supplementary Figure S9, CCTV vs VTCC): not due to a different number of macrophages that engulfed nanoparticles
co-staining with F4/80 in plaque [3]: co-stained with CCTV
